MIC data for six molecules are collected here from patent US9060515B2, “Heterocyclic urea compounds” (BIOTA EUROPE LTD, priority 2011, dated 2015).

Converted amounts (≈) assume the structure as drawn.

Common to all, as to assay type: cell-based
For one experiment, the system named is S. pyogenes (ATCC 51339). The experiment is described as follows: Antibacterial susceptibility testing (MIC, broth microdilution or agar dilution), S. pyogenes. Conditions: Streptococcus pyogenes, ATCC51339; read-out: S. pyogenes (ATCC 51339) minimal inhibitory concentration (MIC). The procedure, abridged:
(§1)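 MICs by CLSI (M7-A7) broth microdilution or agar dilution, against reference ATCC strains as listed.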
On the technique in general: Dilution methods test growth across graded concentrations, often in twofold steps.

In experiment [1] the test system is H. influenzae (ATCC 49247). The experiment is described as follows: Antibacterial susceptibility testing (MIC, broth microdilution or agar dilution), H. influenzae. The note with it: Haemophilus influenzae, ATCC49247; read-out: H. influenzae (ATCC 49247) minimal inhibitory concentration (MIC). The procedure, abridged: as §1
The test system of the next experiment is S. aureus (ATCC 29213). The experiment is described as follows: Antibacterial susceptibility testing (MIC, broth microdilution or agar dilution), S. aureus. Conditions: Staphylococcus aureus, ATCC29213; read-out: S. aureus (ATCC 29213) minimal inhibitory concentration (MIC). Summed up: as §1
In another experiment the test system is E. faecalis (ATCC 29212). The experiment is described as follows: Antibacterial susceptibility testing (MIC, broth microdilution or agar dilution), E. faecalis. Conditions: Enterococcus faecalis, ATCC29212; read-out: E. faecalis (ATCC 29212) minimal inhibitory concentration (MIC). Summed up: as §1

In the case of `CCNC(=O)Nc1cc(Nc2ccc(F)c(F)c2)c(C(=O)Nc2ccc(CCC(=O)O)cc2)cn1` [Compound 220, 3-{4-[({4-[(3,4-difluorophenyl)amino]-6-[(ethylcarbamoyl)amino]pyridin-3-yl}carbonyl)amino]phenyl}propanoic acid], the MIC (in the experiment with S. pyogenes (ATCC 51339); in experiment [1]; with S. aureus (ATCC 29213); with E. faecalis (ATCC 29212)) was not above 1 µg/mL throughout.
For the molecule `CCNC(=O)Nc1cc(Nc2cccc(F)c2)c(C(=O)Nc2ccc(CCC(=O)O)cc2)cn1` [Compound 221, 3-{4-[({6-[(ethylcarbamoyl)amino]-4-[(3-fluorophenyl)amino]pyridin-3-yl}carbonyl)amino]phenyl}propanoic acid], the MIC (in the experiment with S. pyogenes (ATCC 51339); in experiment [1]; in the experiment with S. aureus (ATCC 29213); in the experiment on E. faecalis (ATCC 29212)) was not above 1 µg/mL in each case.
As for `CCNC(=O)Nc1cc(Nc2ccc(Cl)cc2F)c(C(=O)Nc2ccc(CCC(=O)O)cc2)cn1` [Compound 224, 3-{4-[({4-[(4-chloro-2-fluorophenyl)amino]-6-[(ethylcarbamoyl)amino]pyridin-3-yl}carbonyl)amino]phenyl} propanoic acid], the MIC (in the experiment with S. pyogenes (ATCC 51339); in experiment [1]; in the experiment with S. aureus (ATCC 29213); in the experiment with E. faecalis (ATCC 29212)) was not above 1 µg/mL in each case.
`CCNC(=O)Nc1cc(Nc2cc(Cl)cc(Cl)c2)c(C(=O)Nc2ccc(CCC(=O)O)cc2)cn1` [Compound 228, 3-{4-[({4-[(3,5-dichlorophenyl)amino]-6-[(ethylcarbamoyl)amino]pyridin-3-yl}carbonyl)amino]phenyl}propanoic acid]: the MIC (in the experiment with S. pyogenes (ATCC 51339); in experiment [1]; in the experiment with S. aureus (ATCC 29213); with E. faecalis (ATCC 29212)) was not above 1 µg/mL in each case.
With `CCNC(=O)Nc1cc(Nc2ccc(F)c(Cl)c2)c(C(=O)Nc2ccc(CCC(=O)O)cc2)cn1` [Compound 229, 3-{4-[({4-[(3-chloro-4-fluorophenyl)amino]-6-[(ethylcarbamoyl)amino]pyridin-3-yl}carbonyl)amino]phenyl}propanoic acid], the MIC (in the experiment on S. pyogenes (ATCC 51339); in experiment [1]; in the experiment on S. aureus (ATCC 29213); in the experiment with E. faecalis (ATCC 29212)) was not above 1 µg/mL in each case.
On to `CCNC(=O)Nc1cc(Nc2cc(F)cc(F)c2)c(C(=O)Nc2ccc(CCC(=O)O)cc2)cn1` [Compound 235, 3-{4-[({4-[(3,5-difluorophenyl)amino]-6-[(ethylcarbamoyl)amino]pyridin-3-yl}carbonyl)amino]phenyl}propanoic acid], for which the MIC with S. pyogenes (ATCC 51339) is not above 1 µg/mL; in experiment [1] it was 4 µg/mL (≈ 8.27 µM); with S. aureus (ATCC 29213), not above 1 µg/mL; in the experiment on E. faecalis (ATCC 29212) it was not above 1 µg/mL.
